Format in all cases: functional
Assay [1] addresses T1, Neuropeptide Y receptor type 1 (Homo sapiens) (UniProt P25929).
T1 sequence (whole entry): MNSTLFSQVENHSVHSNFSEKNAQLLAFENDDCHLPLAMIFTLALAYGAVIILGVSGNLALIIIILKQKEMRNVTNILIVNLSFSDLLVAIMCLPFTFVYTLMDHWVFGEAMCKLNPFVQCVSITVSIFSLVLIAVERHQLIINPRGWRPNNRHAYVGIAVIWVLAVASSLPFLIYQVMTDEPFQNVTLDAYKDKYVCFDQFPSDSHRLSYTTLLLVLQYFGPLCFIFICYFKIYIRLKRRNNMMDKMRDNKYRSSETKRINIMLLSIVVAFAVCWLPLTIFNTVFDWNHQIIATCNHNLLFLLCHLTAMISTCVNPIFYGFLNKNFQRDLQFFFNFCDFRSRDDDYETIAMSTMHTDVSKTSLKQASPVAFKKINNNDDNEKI
The assay is described as follows: Antagonist activity at neuropeptide Y receptor Y1 at 10 uM.

Assay [2] concerns the target T2, Neuropeptide Y receptor type 2 (Homo sapiens, UniProt P49146).
T2 sequence (P49146 whole entry): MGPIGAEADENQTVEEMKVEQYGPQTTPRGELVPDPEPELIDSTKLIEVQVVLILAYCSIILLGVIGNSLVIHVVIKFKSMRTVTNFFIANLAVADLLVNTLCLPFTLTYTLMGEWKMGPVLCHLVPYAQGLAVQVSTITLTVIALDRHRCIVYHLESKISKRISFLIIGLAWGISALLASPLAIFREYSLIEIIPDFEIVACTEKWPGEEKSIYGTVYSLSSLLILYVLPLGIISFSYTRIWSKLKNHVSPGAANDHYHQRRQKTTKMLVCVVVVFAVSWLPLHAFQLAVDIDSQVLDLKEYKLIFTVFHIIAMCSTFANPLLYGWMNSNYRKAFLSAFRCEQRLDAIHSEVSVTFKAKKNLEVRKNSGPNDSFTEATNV
The assay is described as follows: Partial antagonist activity at neuropeptide Y receptor Y2.

For assay [3], the target named is T3, Neuropeptide Y receptor type 2 (Homo sapiens) (UniProt P49146).
T3 sequence (whole entry): T2 sequence (P49146 whole entry)
The assay is described as follows: Antagonist activity at neuropeptide Y receptor Y2 at 10 uM.

Calls of active or inactive are those of the source.

Take `COc1ccc(NC(=S)N2CCC(C(O)(c3ccccc3)c3ccccc3)CC2)cc1C(F)(F)F`: the result in assay [1] was inactive. Moreover, in assay [2], 6.08 µM corresponded to half-maximal inhibition (IC50).
As for `OC(c1ccccc1)(c1ccccc1)C1CCN(C(=S)Nc2ccc(N3CCCCC3)cc2)CC1`, the outcome in assay [1] was inactive. Moreover, in assay [2], the IC50 came to 0.271 µM.
`COc1cccc(NC(=S)N2CCC(C(O)(c3ccccc3)c3ccccc3)CC2)c1`: the outcome in assay [1] was inactive. In assay [2], this compound returned an IC50 of 8.16 µM.
`CCOC(=O)c1cccc(NC(=S)N2CCC(C(O)(c3ccccc3)c3ccccc3)CC2)c1`: the result in assay [1] was inactive. This compound also had an IC50 in assay [2] of 0.238 µM.
Consider `OC(c1ccccc1)(c1ccccc1)C1CCN(C(=S)Nc2ccc(C(F)(F)F)cc2Cl)CC1`, for which the outcome in assay [1] and in assay [3] was inactive.
In the case of `COC(c1ccccc1)(c1ccccc1)C1CCN(C(=S)Nc2ccc(S(=O)(=O)N(C)C)cc2)CC1`, the result in assay [1] and in assay [3] was inactive.
For the compound `CCOc1ccc(NC(=S)N2CCC(C(O)(c3ccccc3)C3CCCCC3)CC2)cc1` (stereo not given), the outcome in assay [1] and in assay [3] was inactive.
`CCC(=O)Nc1ccc(OC(=O)N2CCC(C(O)(c3ccccc3)c3ccccc3)CC2)cc1`: the result in assay [1] and in assay [3] was inactive.
For the compound `CN(C)S(=O)(=O)c1ccc(NC(=S)N2CCC(C(O)(c3ccccc3)c3ccoc3)CC2)cc1` (stereo not given), the outcome in assay [1] and in assay [3] was inactive.
As for `CCOc1ccc(NC(=S)N2CCC(C(O)(c3ccccc3)c3ccccc3)CC2)c(C(F)(F)F)c1`, the result in assay [1] and in assay [3] was inactive.

The record behind these values is ChEMBL document CHEMBL2029318, “Synthesis and SAR of selective small molecule neuropeptide Y Y2 receptor antagonists” (Bioorg Med Chem Lett, 2012).
